Broadly, the EC50 is the concentration giving half of the maximal effect. Usually IC50 stands for the concentration that inhibits the measured activity by half.

The record followed here is ChEMBL document CHEMBL1201862, “PubChem BioAssay data set” (2004).

Active and inactive are the calls of the source.

For assay [1], the target named is T1, Voltage-dependent T-type calcium channel subunit alpha-1H (Homo sapiens, UniProt O95180). The experiment in a line: inhibition of CACNA1H calcium flux – cell-based, SynthLib3 library, HEK293 Cav3.2, fluorescence (AID 493041). In kind it is functional. (In general: Calcium assays in cells follow changes in intracellular calcium, usually with a dye or a luminescent sensor.)
T1 sequence (O95180 whole entry): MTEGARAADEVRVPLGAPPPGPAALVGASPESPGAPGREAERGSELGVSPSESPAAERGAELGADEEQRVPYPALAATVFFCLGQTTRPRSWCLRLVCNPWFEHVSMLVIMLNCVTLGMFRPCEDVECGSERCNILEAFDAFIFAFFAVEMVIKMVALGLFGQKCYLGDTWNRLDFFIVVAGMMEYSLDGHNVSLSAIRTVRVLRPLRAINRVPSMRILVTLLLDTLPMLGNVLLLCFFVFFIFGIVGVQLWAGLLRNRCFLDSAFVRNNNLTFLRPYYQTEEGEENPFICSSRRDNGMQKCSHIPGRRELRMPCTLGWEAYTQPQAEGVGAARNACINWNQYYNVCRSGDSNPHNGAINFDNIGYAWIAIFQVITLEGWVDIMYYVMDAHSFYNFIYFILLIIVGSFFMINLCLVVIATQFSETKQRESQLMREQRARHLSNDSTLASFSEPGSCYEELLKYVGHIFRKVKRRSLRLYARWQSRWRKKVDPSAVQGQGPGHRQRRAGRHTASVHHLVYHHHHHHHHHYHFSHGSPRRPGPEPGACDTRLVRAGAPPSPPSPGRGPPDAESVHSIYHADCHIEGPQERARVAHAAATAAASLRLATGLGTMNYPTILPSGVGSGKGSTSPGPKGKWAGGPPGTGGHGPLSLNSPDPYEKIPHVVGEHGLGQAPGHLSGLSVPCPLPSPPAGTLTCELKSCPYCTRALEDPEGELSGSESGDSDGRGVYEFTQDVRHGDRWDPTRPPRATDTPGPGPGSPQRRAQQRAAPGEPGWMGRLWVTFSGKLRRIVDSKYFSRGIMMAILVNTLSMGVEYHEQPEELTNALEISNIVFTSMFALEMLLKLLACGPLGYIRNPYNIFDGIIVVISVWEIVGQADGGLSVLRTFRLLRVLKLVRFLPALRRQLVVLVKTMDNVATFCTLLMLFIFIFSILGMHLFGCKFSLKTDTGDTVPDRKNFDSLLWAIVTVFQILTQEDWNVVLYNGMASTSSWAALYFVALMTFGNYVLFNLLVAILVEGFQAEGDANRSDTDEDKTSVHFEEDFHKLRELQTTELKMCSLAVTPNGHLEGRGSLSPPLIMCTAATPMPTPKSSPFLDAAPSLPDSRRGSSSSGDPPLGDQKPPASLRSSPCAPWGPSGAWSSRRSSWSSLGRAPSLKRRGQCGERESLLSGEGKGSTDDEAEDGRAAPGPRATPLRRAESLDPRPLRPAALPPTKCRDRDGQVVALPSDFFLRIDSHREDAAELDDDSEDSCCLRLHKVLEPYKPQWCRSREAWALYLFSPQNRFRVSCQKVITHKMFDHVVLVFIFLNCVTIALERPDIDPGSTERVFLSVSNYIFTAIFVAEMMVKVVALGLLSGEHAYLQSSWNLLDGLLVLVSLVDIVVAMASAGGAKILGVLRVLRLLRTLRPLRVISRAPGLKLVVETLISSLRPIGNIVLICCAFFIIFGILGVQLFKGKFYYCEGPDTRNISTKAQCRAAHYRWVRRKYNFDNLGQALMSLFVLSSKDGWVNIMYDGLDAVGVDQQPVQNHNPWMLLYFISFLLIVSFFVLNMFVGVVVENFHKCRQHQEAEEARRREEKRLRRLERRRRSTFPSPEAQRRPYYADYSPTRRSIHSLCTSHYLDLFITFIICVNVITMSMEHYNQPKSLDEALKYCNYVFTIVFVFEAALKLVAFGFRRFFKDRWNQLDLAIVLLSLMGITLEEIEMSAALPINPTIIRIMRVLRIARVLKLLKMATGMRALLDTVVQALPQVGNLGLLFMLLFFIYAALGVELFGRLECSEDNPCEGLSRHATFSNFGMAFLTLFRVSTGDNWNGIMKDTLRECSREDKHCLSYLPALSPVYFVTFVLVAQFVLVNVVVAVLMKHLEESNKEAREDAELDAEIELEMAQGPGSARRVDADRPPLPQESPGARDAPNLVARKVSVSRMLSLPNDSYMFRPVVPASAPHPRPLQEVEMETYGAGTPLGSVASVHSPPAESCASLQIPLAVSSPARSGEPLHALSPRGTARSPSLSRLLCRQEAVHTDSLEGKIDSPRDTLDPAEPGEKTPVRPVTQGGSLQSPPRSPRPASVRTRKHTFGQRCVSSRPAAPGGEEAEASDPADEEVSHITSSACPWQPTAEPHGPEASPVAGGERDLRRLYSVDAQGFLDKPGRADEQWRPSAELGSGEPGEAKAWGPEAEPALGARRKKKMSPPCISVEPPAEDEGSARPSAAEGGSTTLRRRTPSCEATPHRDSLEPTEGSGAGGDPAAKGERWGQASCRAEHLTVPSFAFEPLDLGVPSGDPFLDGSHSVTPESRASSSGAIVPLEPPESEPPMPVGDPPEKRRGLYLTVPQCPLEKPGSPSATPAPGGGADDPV

Assay [2] has as its target T1, Voltage-dependent T-type calcium channel subunit alpha-1H. Nature of the assay: human CACNA1H calcium influx blockade – cell-based, synthetic library set 2, HEK293 HH8, Fluo-4, SAR follow-up (AID 493023). Format: functional.
The target of assay [3] is T2, Delta-type opioid receptor (Homo sapiens, UniProt P41143). The experiment in a line: SAR Analysis of Agonists of the DOR Receptor using an Image-Based Assay - Set 3. [Related pubchem assays (depositor defined):AID1777, AID1786]. Format: functional.
T2 sequence (P41143 whole entry): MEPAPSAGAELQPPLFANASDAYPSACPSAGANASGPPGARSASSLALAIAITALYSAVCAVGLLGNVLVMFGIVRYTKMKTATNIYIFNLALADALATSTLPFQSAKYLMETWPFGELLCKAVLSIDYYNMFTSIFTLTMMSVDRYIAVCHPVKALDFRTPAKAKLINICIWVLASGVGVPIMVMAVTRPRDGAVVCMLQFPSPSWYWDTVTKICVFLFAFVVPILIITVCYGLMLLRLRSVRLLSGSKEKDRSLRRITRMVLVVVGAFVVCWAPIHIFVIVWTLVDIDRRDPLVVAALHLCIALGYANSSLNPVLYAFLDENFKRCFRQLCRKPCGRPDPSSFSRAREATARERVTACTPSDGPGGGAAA
Assay [4] addresses T3, Mu-type opioid receptor (Homo sapiens, UniProt P35372). The experiment in a line: SAR Analysis of Agonists of the MOR Receptor using an Image-Based Assay - Set 3. [Related pubchem assays (depositor defined):AID1777, AID1785, AID1786, AID1966, AID2133, AID2136, AID2284, AID2285, AID2352]. In kind it is functional.
For assay [5], the target named is T4, Kappa-type opioid receptor (Homo sapiens, UniProt P41145). The experiment in a line: SAR analysis of small molecule agonists of the kappa opioid receptor via a luminescent beta-arrestin assay - Set 3. [Related pubchem assays (depositor defined):AID1777, AID1785, AID1786, AID1966, AID2133, AID2136, AID2284, AID2500]. In kind it is functional.
T4 sequence (P41145 whole entry): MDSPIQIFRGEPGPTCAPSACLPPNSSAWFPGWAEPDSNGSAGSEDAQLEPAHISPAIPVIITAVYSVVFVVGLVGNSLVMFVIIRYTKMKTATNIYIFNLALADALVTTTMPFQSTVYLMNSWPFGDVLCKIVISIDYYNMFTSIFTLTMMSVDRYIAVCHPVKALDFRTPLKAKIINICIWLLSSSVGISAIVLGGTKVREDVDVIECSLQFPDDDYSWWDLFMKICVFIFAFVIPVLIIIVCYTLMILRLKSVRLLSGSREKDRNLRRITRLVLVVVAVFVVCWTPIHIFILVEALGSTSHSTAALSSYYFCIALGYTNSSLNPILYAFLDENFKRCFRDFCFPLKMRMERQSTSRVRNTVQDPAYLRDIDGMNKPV
The target of a further assay is Ion channel NompC (Danio rerio, UniProt Q7T1G6). The experiment in a line: Dose response cell-based high-throughput screening assay for agonists of the transient receptor potential channel N1 (TRPN1). [Related pubchem assays (depositor defined):AID1424, AID1448]. In kind it is functional.
In another assay the target is Mucolipin-3 (Homo sapiens, UniProt Q8TDD5). The experiment in a line: Fluorescence counterscreen assay for […] agonists: dose response cell-based high-throughput screening assay to identify agonists of the transient receptor potential channel ML3 (TRPML3). [Related pubchem assays: 1424, 1448 ]. Format: functional.
Chain of Mucolipin-3 (Q8TDD5 whole entry): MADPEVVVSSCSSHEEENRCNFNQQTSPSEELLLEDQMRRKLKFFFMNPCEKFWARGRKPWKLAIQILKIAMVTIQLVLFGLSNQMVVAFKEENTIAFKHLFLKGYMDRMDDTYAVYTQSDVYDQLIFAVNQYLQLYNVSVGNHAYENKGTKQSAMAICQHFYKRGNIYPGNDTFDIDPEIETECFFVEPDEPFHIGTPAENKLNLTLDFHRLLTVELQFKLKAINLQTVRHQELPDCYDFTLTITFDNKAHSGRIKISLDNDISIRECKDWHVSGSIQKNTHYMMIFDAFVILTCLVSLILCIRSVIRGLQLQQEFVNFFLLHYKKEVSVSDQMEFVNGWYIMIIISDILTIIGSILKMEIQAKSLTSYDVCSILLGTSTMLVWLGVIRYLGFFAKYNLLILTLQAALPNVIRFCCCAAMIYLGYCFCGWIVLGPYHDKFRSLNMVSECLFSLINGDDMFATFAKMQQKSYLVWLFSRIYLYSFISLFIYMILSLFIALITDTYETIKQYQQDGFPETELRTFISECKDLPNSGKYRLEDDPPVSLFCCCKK
Assay [6] in a line: HEK-293T viability loss after treatment – luminescence, T-cell screen hits, cytotoxicity control for TCR NF-kB inhibitor project, dose response (AID 489026).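 Note: cells exposed to compound about 14 hours before the viability readout.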 In kind it is functional, cell-based.
Assay [7] addresses T3, Mu-type opioid receptor. The experiment in a line: HTS Image-Based Screen for Agonists of the MOR Receptor. [Related pubchem assays (depositor defined):AID1777, AID1785, AID1786, AID2133]. In kind it is functional.
The next assay has as its target Melanocortin receptor 4 (Homo sapiens, UniProt P32245). Format: functional, cell-based.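 Note: Cell-based assay with luminescence read-out, confirmatory dose-response testing for agonist activity of biased ligands at MC4R; human U2OS cells with tagged receptor and beta-arrestin; potency of agonists that increase receptor coupling to beta-arrestin.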
The target in assay [8] is T2, Delta-type opioid receptor. Nature of the assay: HTS Image-Based Screen for Antagonists of the DOR Receptor. [Related pubchem assays (depositor defined):AID1777, AID1785, AID1786, AID2133]. In kind it is functional.
Assay [9] has as its target T4, Kappa-type opioid receptor. In kind it is functional.
The target in assay [10] is T4, Kappa-type opioid receptor. In kind it is functional. The source holds these as a separate data set.
For assay [11], the target named is T2, Delta-type opioid receptor. The experiment in a line: HTS Image-Based Screen for Agonists of the DOR Receptor. [Related pubchem assays (depositor defined):AID1777, AID1786, AID2133]. Format: functional.

T3 sequence (P35372 whole entry): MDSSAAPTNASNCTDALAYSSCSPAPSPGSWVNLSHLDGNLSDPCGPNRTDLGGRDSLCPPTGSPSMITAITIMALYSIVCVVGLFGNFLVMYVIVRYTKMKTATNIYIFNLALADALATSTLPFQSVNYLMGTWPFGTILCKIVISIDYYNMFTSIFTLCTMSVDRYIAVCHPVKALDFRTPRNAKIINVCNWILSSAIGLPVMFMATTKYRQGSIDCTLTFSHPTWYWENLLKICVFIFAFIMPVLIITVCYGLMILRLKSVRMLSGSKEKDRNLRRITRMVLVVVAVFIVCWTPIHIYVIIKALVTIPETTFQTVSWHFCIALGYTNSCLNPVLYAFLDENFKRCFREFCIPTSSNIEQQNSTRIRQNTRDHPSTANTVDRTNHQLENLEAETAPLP
Chain of Melanocortin receptor 4 (P32245 whole entry): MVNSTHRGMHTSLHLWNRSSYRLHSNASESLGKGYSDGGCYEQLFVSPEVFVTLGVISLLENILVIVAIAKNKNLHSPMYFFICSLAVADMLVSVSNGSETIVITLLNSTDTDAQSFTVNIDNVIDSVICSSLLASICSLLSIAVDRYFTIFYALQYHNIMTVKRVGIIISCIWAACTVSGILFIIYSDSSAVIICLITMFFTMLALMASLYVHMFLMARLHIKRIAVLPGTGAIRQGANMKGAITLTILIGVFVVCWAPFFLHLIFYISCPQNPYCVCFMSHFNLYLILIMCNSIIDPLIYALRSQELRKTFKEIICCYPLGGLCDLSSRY

Regarding `CCC(C)CN1CCC[C@H](NC(=O)COc2ccc(F)c(Cl)c2)C1` (some centres undefined), the concentration giving a half-maximal response (EC50) in assay [1] is 10 µM (active).

As for `O=C(COc1ccc(F)cc1Cl)N[C@@H]1CCCN(Cc2ccccc2)C1`, the concentration for a half-maximal effect (EC50) in assay [2] was 10 µM (active).

On to `Cc1ccccc1CSc1nnc(-c2ccccn2)n1Cc1cccs1`, for which the EC50 in assay [3] was > 32 µM (inactive); at Mu-type opioid receptor [4] it was > 32 µM (inactive); in assay [5] it was 14.7 µM (inactive).

On to `O=C(Nc1ccc(S(=O)(=O)Nc2ccccc2)cc1)c1ccc(CN2CCOCC2)cc1`, for which the EC50 at Ion channel NompC was > 29.9 µM (inactive); on Mucolipin-3, > 29.9 µM (not active). Also, the IC50 in assay [6] is 48.1 µM (inactive).

For the molecule `Nc1ccc(C2(c3ccc(N)cc3)c3ccccc3-c3ccccc32)cc1`, the EC50 is > 32 µM (inactive) on Mu-type opioid receptor [7]; > 89.2 µM (inactive) at Melanocortin receptor 4; 8.41 µM in assay [9]; > 35 µM in assay [10]; > 32 µM (inactive) in assay [11]. Further, the IC50 in assay [8] was > 32 µM (inactive).
